This is an account of results in patent US12331058B2, “SHP2 and CDK4/6 dual-target inhibitory compound and pharmaceutical composition containing the same” (CHINA PHARMACEUTICAL UNIVERSITY, priority 2021, dated 2025).

Where two headings read alike, the source gives them in different places.

Assay [1] concerns the target T1, SHP2 (Homo sapiens, UniProt Q06124).
T1 sequence (Q06124 1-593): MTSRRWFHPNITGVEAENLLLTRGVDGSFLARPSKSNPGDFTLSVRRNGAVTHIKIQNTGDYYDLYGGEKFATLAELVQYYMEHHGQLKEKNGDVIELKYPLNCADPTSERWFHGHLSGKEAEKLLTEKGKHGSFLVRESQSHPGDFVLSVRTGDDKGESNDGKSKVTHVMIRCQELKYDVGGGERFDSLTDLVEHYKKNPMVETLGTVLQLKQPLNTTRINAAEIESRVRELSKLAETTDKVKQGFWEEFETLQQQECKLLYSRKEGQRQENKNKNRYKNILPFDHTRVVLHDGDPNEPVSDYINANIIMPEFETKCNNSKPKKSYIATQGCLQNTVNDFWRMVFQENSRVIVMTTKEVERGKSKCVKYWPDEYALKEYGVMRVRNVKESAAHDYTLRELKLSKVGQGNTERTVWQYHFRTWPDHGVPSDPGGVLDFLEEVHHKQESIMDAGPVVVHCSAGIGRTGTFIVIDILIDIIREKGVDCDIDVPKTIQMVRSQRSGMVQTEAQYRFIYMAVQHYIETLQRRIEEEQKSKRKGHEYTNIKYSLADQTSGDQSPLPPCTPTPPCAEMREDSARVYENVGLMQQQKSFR
The assay can be described thus: SHP2 enzyme activity test in vitro.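 Note: IC50 derived by variable-slope curve fitting of percent inhibition of SHP2 enzymatic activity plotted against log compound concentration.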
Experimental: SHP2 Enzyme Activity Test In Vitro
SHP2 enzyme activity of the compounds in the above examples are tested as follows.
(§7) The compound is dissolved in 100% DMSO to prepare into a 30 mM storage solution, which is stored in −20° C. refrigerator in the dark.
The log value for concentration is taken as X-axis and the percent inhibition is taken as Y-axis, and the log (inhibitor) vs. response variable slope of the analysis software GraphPad Prism 5 is used to fit the dose-response curve to obtain the IC50 values for each compound on enzyme activity.

The subject of assay [2] is SHP2 and CDK4/6. The assay can be described thus: In vitro enzyme activity and antiproliferative activity tests (summary statement).
Assay [3] relates to EMT6 cells. The assay can be described thus: In vitro antiproliferative activity (MTT), EMT6. As to conditions: Mus musculus, EMT6, 72 h, 3 days of incubation. It counts as cell-based. How it is done: (§1) In Vitro Antiproliferative Activity of Compound 1. Experimental Procedure
(§2) (4) MDA-MB-231, MDA-MB-468 or EMT6 cells are taken out of a liquid nitrogen tank, immediately placed in a constant temperature water bath at 37° C. and melted by shaking, then the cells are poured into a culture flask. The culture solution (containing 10% of fetal bovine serum) is added for dilution. The diluted culture medium is transferred into a centrifuge tube, centrifuged at 1000 r/min for 5 minutes. The supernatant is discarded and fresh culture medium is added for blowing and mixing uniformly. The mixture is transferred into a culture bottle, and cultured in a culture box with a concentration of 5% CO2 at 37° C. When the cells are adhered to the wall and almost fully paved at the bottle bottom, the passage begins. A little amount of fresh culture medium (containing 10% of fetal calf serum) is added to terminate the digestion. The liquid in the culture bottle is poured out, and the culture bottle is washed twice with PBS. The fresh culture medium is added to blow and mix uniformly, and divided evenly into two culture bottles for continuing the culture.
(§3) (5) Cells in the logarithmic phase are taken, and the old culture medium are poured out. The trypsin solution is added for digestion for 3 minutes, and the fresh culture medium containing 10% of fetal bovine serum is added for terminating digestion. The solution is transferred into a centrifuge tube, centrifuged at 1000 r/min for 5 minutes, and the supernatant is discarded. The cells are counted by adding a medium to prepare into a cell suspension. After counting, cells are seeded in 96-well plates at a cell concentration of 5000-10000 cells per well. The 96-well plate with the spread cells is placed in a 5% CO2 incubator at 37° C. for a continuous culture for 24 hours. The drugs are diluted in gradient to 90μ mol/L, 30μ mol/L, 10μ mol/L, […], 0.37μ mol/L with medium and then added to 96-well plates at 100 μL per well, with three multiplex wells per concentration. The control group is added with medium containing solvent with the corresponding concentration, the zeroing hole is added with blank medium with the same volume, and the blank medium is placed in a culture box with 5% CO2 and 37° C. for 3 days of incubation with a replacement of the medium every two days. 20 μL of MTT (5 mg/mL) is added to each well. After mixing uniformly, the mixture is incubated in a 5% CO2 incubator at 37° C. for 4 hours in the absence of light. With a removement of the liquid in the 96-well plate and an addition of 150 μl of DMSO to each well, the mixture is placed on a micro-shaker and shaken to completely dissolve the crystals at the bottom. Subsequently, the 96-well plate is placed in an microplate reader for detection and the absorbance is measured at 490 nm.
(§4) Curve is drawn and inhibition rate of drug to cell and IC50 are calculated. Inhibition ratio=[(average OD value for control group-average OD value for experimental group)/(average OD value for control group-average OD value for blank control group)]×100%. 3. Experimental Results
(§5) The inhibitory activities of the compounds on MDA-MB-231, MDA-MB-468 and EMT6 cell lines are as follows: […]

For assay [4], the system named is MDA-MB-231 cells. The assay can be described thus: In vitro antiproliferative activity (MTT), MDA-MB-231. The format is cell-based. As to conditions: Homo sapiens, MDA-MB-231, 72 h, 3 days of incubation. Here is the method:
as §1, §2, §3, §4, §5

For assay [5], the system named is MDA-MB-468 cells. The assay can be described thus: In vitro antiproliferative activity (MTT), MDA-MB-468. The format is cell-based. The following applies: Homo sapiens, MDA-MB-468, 72 h, 3 days of incubation. Here is the method:
as §1, §2, §3, §4, §5

The target in assay [6] is CDK4 (Homo sapiens, UniProt P11802). The assay can be described thus: CDK4 enzyme activity test in vitro. It counts as biochemical. The following applies: Caliper EZ Reader II conversion.
Experimental: CDK4 Enzyme Activity Test In Vitro
as §7
(1) 1×Kinase buffer is prepared.
(2) The preparation of concentration gradient of the compound: tested compound is tested at an initial concentration of 30000 nM according to a customer's request, diluted into a 100% DMSO solution at a 100-fold final concentration in a 384 source plate, diluted by 3-fold with 10 concentrations, 250 nL of compound with a 100-fold final concentration is transferred to the target plate of 384-well-plate by using a dispenser Echo 550.
(3) A Kinase solution with a 2.5-fold final concentration is prepared by using a 1×Kinase buffer.
(4) 10 μL of kinase solution with a 2.5-fold final concentration is added to the compound wells and the positive control wells, respectively; 10 μL of 1×Kinase buffer is added to the negative control wells.
(5) The kinase solution is centrifugated at 1000 rpm for 30 seconds, and incubated at the room temperature for 10 minutes after the reaction plate is shaken and mixed uniformly.
(7) The reaction is initiated by adding 15 μL of the mixed solution of ATP and substrate at a 5/3-fold final concentration.
(8) The 384-well plate is centrifuged at 1000 rpm for 30 seconds, and incubated at the room temperature for 180 minutes after shaking and mixing uniformly.
(9) The kinase reaction is terminated by adding 30 μL of termination detection solution, centrifuged at 1000 rpm for 30 seconds with shaking and mixing uniformly.
(10) The conversion is read by using Caliper EZ Reader II.
Calculation Formula is as follows:
Conversion %_sample denotes a conversion reading of the sample; Conversion % min denotes an average value for negative control wells, represents a conversion reading without enzyme wells; Convesion %_max denotes an average value for positive control wells, represents a conversion reading without compound inhibition wells.
The test system of assay [7] is MDA-MB-231 cells. The assay can be described thus: Cell cycle experiment (PI flow cytometry), MDA-MB-231. The format is cell-based. The following applies: MDA-MB-231, 48 hours, compared with TNO155, Abemaciclib and their combination. Here is the method:
(§6) Cells are washed once with PBS and 1 mL of trypsin without EDTA (0.25%) is added. When cells change round and part of the cells are suspended, the digestion is terminated by adding PBS, subsequently, the cells are harvested and fixed in 70% ethanol (500 μL) at 4° C. for 24 hours. Cells are collected by washing with PBS and centrifuged at 1500 rpm for 5 minutes, then stained with PI/RNase in the dark at the room temperature for 30 minutes-60 minutes. After incubation, the cells are analyzed by flow cytometry. All experiments are performed 3 times.

The test system of assay [8] is MDA-MB-468 cells. The assay can be described thus: Cell cycle experiment (PI flow cytometry), MDA-MB-468. The following applies: MDA-MB-468, 48 hours, compared with TNO155, Abemaciclib and their combination. It counts as cell-based. How it is done:
as §6
For orientation: Flow cytometry measures light scatter and fluorescence of single cells or particles in a stream.

CDK4, sequence (P11802 whole entry): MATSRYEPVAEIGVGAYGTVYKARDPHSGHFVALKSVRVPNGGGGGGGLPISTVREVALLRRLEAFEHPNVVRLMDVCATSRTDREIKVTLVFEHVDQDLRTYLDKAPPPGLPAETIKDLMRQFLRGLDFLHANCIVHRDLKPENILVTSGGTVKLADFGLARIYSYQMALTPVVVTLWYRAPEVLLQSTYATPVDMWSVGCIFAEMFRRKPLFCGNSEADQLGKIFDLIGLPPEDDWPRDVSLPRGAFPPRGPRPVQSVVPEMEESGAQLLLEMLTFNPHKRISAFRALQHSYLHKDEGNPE
CDK4, sequence (P30281 whole entry partner): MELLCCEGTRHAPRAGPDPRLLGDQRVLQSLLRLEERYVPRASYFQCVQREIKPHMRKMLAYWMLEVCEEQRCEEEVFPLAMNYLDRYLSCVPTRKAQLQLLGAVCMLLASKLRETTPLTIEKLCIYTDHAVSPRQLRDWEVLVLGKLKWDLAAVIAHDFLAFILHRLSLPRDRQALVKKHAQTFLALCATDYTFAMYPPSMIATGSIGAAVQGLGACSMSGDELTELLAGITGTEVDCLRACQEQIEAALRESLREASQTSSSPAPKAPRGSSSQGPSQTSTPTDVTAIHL

As for `Cc1nc2c(F)cc(-c3nc(Nc4nccc(Sc5cnc(N6CCC7(CC6)Cc6ccccc6[C@H]7N)cn5)c4Cl)ncc3F)cc2n1C(C)C` [Compound 10], the IC50 in assay [1] stood at 10 nM; in assay [3], 1.1 µM; in assay [4] it was 4.4 µM; in assay [5], 5.9 µM. The double-target inhibition activity entry in assay [2] is recorded as “better double-target inhibition activity”.
In the case of `Cc1nc2c(F)cc(-c3nc(Nc4cc(Sc5cnc(N6CCC7(CC6)CO[C@@H](C)[C@H]7N)cn5)ccn4)ncc3F)cc2n1C(C)C` [Compound 26], the IC50 in assay [1] was 48 nM; in assay [3], 1.1 µM; in assay [4], 5.1 µM; in assay [6] it was 17 nM; in assay [5] it was 9.6 µM. Also, the double-target inhibition activity result in assay [2] is reported as “better double-target inhibition activity”.
As for `Cc1nc2c(F)cc(-c3nc(Nc4cccc(Sc5cnc(N6CCC7(CC6)CO[C@@H](C)[C@H]7N)cn5)c4Cl)ncc3F)cc2n1C(C)C` [Compound 25], the half-maximal inhibitory concentration (IC50) was determined as 15 nM in assay [1]; 0.6 µM in assay [3]; 4.6 µM in assay [4]; 8 nM in assay [6]; 9.1 µM in assay [5]. Moreover, in assay [2], the double-target inhibition activity entry is “better double-target inhibition activity”.
In the case of `Cc1nc2c(F)cc(-c3nc(Nc4nccc(Sc5cnc(N6CCC7(CC6)CO[C@@H](C)[C@H]7N)cn5)c4Cl)ncc3F)cc2n1C(C)C` [Compound 14], the IC50 was found to be 5 nM in assay [1]; 0.6 µM in assay [3]; 6.4 µM in assay [4]; 19 nM in assay [6]; 1.8 µM in assay [5]. The double-target inhibition activity entry in assay [2] was “better double-target inhibition activity”. In addition, the G0/G1 phase arrest result in assay [7] and in assay [8] was “better cycle G0/G1 phase arrest” in each case.
Consider `CCN1CCN(Cc2ccc(Nc3ncc(F)c(-c4cc(F)c5nc(C)n(C(C)C)c5c4)n3)nc2)CC1` [Abemaciclib, reference compound], for which the figures for the IC50 in assay [3], in assay [4] and in assay [5] were 4.2 µM, greater than 20 µM and greater than 20 µM, respectively.
Take `Cc1nc2c(F)cc(-c3nc(Nc4nccc(Sc5cnc(N6CCC7(CC6)CO[C@@H](C)[C@H]7N)cn5)c4C#N)ncc3F)cc2n1C(C)C` [Compound 19]: the IC50 in assay [1] was found to be 9 nM; in assay [3], 0.7 µM; in assay [4] it was 9.6 µM; in assay [6], 3 nM; in assay [5], 3.7 µM. Besides, the double-target inhibition activity entry in assay [2] is “better double-target inhibition activity”.
In the case of `Cc1nc2c(F)cc(-c3nc(Nc4ccc(Sc5cnc(N6CCC7(CC6)CO[C@@H](C)[C@H]7N)cn5)c(Cl)c4)ncc3F)cc2n1C(C)C` [Compound 23], the IC50 amounted to 61 nM in assay [1] (read-out: SHP2 IC50, fluorescence Ex355/Em460, activation peptide); 1.7 µM in assay [3]; 3.2 µM in assay [4]; 10.5 µM in assay [5]. In addition, the double-target inhibition activity entry in assay [2] is “better double-target inhibition activity”.
With `C[C@@H]1OCC2(CCN(c3cnc(Sc4ccnc(N)c4Cl)c(N)n3)CC2)[C@@H]1N` [TNO155, reference compound], the concentration for half-maximal inhibition (IC50) in assay [3] is 7 µM; in assay [4] it was greater than 20 µM; in assay [5], greater than 20 µM.

As usually defined, the IC50 is the point on the concentration scale where inhibition reaches its midpoint.
